Assay results as given in US11459315B2, “Modulators of methyl modifying enzymes, compositions and uses thereof” (Constellation Pharmaceuticals, Inc., priority 2017, dated 2022).
Where two headings read alike, the source gives them in different places.

Tests used:
[1] = test system: H3K27me3 mark in HeLa cells (EZH2); test: H3K27me3 Alpha Hela Assay (AlphaLISA); assay type: cell-based; conditions: Homo sapiens, HeLa, 72 h, HeLa cells, 72 hrs; read-out: EZH2 Cell H3K27me3 Alpha HeLa (EC50 K27me3)
Procedure, shortened: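 HeLa cells (1,000/well) treated with ten 3-fold compound doses for 72 h at 37 °C; lysates extracted and H3K27me3 detected by AlphaLISA with anti-K27me3 acceptor beads, biotinylated anti-H3 (3 nM) and streptavidin donor beads. EC50 from DMSO-normalized dose-response curves; duplicate plate assessed viability.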

[2] = biological target: PRC2 containing wt EZH2 (Homo sapiens (Human), UniProt Q15910); test: EZH2 biochemical assay (IC50), 3H-SAM incorporation into biotinylated H3 peptide; conditions: 30 pM PRC2 containing wt EZH2, 3-5 h pre-incubation
Procedure, shortened: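 The PRC2 pentamer with wt EZH2 (30 pM) was pre-incubated for 3-5 h with 450 nM SAM plus 450 nM ³H-SAM, 2 µM H3K27me3 activating peptide and compound (0.8% DMSO) in Tris at pH 8.5. Biotinylated H3K27me1 peptide was added and the reaction ran 18-22 h at RT. Incorporated ³H was captured on streptavidin plates, and IC50 was taken from a four-parameter fit.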

Chain of PRC2 containing wt EZH2 (Q15910 whole entry): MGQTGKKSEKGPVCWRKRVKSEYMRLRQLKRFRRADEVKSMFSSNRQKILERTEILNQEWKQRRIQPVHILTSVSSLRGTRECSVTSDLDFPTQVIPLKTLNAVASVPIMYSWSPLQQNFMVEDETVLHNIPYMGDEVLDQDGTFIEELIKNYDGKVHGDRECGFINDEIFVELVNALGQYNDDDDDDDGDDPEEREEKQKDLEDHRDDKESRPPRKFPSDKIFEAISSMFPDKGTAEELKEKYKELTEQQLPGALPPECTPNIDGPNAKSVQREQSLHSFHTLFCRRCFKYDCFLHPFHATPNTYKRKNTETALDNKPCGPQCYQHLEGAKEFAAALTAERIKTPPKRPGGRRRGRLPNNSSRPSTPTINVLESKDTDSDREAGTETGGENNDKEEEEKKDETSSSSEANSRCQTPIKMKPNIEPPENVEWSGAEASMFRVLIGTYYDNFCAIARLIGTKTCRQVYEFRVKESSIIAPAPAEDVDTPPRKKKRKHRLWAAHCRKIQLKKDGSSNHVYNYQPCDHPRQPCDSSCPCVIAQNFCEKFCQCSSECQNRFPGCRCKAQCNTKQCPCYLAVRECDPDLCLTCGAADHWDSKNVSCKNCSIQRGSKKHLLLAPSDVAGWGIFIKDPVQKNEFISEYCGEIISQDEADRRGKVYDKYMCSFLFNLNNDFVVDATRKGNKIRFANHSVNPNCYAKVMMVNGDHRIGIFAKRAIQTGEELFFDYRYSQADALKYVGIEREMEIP
Chain of PRC2 containing wt EZH2 (O75530 whole entry partner): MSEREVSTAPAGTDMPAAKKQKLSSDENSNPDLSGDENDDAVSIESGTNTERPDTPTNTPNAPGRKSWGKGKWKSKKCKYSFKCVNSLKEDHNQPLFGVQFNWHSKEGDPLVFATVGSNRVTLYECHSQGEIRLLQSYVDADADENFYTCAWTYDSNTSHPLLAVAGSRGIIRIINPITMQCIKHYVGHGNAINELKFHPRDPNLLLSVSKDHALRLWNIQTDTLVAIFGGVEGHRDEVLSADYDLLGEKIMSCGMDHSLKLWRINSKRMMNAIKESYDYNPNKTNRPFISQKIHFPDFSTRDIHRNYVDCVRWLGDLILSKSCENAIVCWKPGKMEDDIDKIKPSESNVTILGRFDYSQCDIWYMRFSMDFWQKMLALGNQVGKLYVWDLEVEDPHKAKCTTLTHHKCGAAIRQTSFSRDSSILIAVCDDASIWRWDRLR
Chain of PRC2 containing wt EZH2 (Q15022 whole entry partner): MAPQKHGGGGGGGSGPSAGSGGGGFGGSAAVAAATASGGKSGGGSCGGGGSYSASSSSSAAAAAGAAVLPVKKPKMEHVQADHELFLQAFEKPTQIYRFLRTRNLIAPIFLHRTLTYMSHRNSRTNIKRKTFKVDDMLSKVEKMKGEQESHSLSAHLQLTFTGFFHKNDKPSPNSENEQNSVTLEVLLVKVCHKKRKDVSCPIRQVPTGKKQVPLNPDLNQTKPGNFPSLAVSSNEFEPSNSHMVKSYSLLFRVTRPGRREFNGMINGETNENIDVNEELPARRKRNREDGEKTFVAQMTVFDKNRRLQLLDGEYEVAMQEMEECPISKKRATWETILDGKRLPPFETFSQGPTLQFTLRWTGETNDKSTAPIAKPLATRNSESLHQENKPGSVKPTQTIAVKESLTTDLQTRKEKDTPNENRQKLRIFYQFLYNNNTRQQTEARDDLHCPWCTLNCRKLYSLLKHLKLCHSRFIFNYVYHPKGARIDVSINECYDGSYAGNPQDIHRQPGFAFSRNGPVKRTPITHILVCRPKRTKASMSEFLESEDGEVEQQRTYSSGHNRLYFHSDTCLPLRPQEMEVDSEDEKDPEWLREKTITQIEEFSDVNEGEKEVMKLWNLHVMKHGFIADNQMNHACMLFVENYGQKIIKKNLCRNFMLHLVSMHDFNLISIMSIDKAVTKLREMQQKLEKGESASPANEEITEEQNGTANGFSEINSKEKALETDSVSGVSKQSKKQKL
Chain of PRC2 containing wt EZH2 (Q09028 whole entry partner): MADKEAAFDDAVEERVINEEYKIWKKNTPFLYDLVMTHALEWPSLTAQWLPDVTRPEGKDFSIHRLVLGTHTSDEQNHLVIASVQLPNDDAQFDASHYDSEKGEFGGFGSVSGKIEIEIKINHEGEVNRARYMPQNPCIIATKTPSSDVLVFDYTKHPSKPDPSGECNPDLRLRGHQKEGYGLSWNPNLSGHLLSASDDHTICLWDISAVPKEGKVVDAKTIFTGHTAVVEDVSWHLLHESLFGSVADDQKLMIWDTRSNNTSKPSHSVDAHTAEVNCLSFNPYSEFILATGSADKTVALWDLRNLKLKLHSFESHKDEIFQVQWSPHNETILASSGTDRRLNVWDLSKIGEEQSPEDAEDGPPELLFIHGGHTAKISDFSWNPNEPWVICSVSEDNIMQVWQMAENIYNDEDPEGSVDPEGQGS
Chain of PRC2 containing wt EZH2 (Q6ZN18 whole entry partner): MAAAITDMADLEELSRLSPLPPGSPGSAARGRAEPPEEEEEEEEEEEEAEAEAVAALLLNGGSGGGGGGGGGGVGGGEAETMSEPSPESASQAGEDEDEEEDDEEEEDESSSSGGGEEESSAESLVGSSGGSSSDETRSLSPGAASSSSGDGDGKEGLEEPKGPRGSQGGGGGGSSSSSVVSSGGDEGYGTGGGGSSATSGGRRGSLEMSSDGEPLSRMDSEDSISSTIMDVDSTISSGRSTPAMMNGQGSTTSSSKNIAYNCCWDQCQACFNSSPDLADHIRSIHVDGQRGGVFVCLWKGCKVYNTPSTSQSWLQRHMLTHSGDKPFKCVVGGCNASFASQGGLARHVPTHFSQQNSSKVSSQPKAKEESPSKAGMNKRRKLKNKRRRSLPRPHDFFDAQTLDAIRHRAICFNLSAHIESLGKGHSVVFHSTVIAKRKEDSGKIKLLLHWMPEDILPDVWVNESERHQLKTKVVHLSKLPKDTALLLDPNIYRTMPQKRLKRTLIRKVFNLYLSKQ

Compound: CC[C@H](C1CCC(N2CC(OC(F)F)C2)CC1)n1c(C)c(C(=O)NCc2c(SC)cc(C)[nH]c2=O)c2cccnc21 (stereo partly drawn) [Example 118, 1-((R)-1-(4-(3-(difluoromethoxy)azetidin-1-yl)cyclohexyl)propyl)-2-methyl-N-((6-methyl-4-(methylthio)-2-oxo-1,2-dihydropyridin-3-yl)methyl)-1H-pyrrolo[2,3-b]pyridine-3-carboxamide]
- EC50 [1]: < 10 nM
- IC50 ([2]; read-out: EZH2 (IC50)): < 0.5 nM

Compound: CSc1cc(C)[nH]c(=O)c1CNC(=O)c1c(C)n([C@H](C)C2CCC(N3CC[C@@H](OC(F)F)C3)CC2)c2ncccc12 (stereo partly drawn) [Example 119, 1-((R)-1-(4-((R)-3-(difluoromethoxy)pyrrolidin-1-yl)cyclohexyl)ethyl)-2-methyl-N-((6-methyl-4-(methylthio)-2-oxo-1,2-dihydropyridin-3-yl)methyl)-1H-pyrrolo[2,3-b]pyridine-3-carboxamide]
- EC50 [1]: < 10 nM
- IC50 ([2]; read-out: EZH2 (IC50)): < 0.5 nM

Compound: CSc1cc(C)[nH]c(=O)c1CNC(=O)c1c(C)n([C@H](C)C2CCC(N3CC[C@H](OC(F)F)C3)CC2)c2ncccc12 (stereo partly drawn) [Example 120, 1-((R)-1-(4-((S)-3-(difluoromethoxy)pyrrolidin-1-yl)cyclohexyl)ethyl)-2-methyl-N-((6-methyl-4-(methylthio)-2-oxo-1,2-dihydropyridin-3-yl)methyl)-1H-pyrrolo[2,3-b]pyridine-3-carboxamide]
- EC50 [1]: 10 to 100 nM
- IC50 ([2]; read-out: EZH2 (IC50)): < 0.5 nM

Compound: CSc1cc(C)[nH]c(=O)c1CNC(=O)c1c(C)n([C@H](C)C2CCC(N3CC(OC(F)F)C3)CC2)c2ncc(F)cc12 (stereo partly drawn) [Example 122, 1-((R)-1-(4-(3-(difluoromethoxy)azetidin-1-yl)cyclohexyl)ethyl)-5-fluoro-2-methyl-N-((6-methyl-4-(methylthio)-2-oxo-1,2-dihydropyridin-3-yl)methyl)-1H-pyrrolo[2,3-b]pyridine-3-carboxamide]
- EC50 [1]: < 10 nM
- IC50 ([2]; read-out: EZH2 (IC50)): < 0.5 nM

Compound: CSc1cc(C)[nH]c(=O)c1CNC(=O)c1c(C)n([C@H](C)C2CCC(N3CC(OC4CC4)C3)CC2)c2ncc(Cl)cc12 (stereo partly drawn) [Example 124, 5-chloro-1-((R)-1-(4-(3-cyclopropoxyazetidin-1-yl)cyclohexyl)ethyl)-2-methyl-N-((6-methyl-4-(methylthio)-2-oxo-1,2-dihydropyridin-3-yl)methyl)-1H-pyrrolo[2,3-b]pyridine-3-carboxamide]
- EC50 [1]: < 10 nM
- IC50 ([2]; read-out: EZH2 (IC50)): < 0.5 nM

Compound: CSc1cc(C)[nH]c(=O)c1CNC(=O)c1c(C)n([C@H](C)C2CCC(N3CC(OC4CCC4)C3)CC2)c2ncc(Cl)cc12 (stereo partly drawn) [Example 126, 5-chloro-1-((R)-1-(4-(3-cyclobutoxyazetidin-1-yl)cyclohexyl)ethyl)-2-methyl-N-((6-methyl-4-(methylthio)-2-oxo-1,2-dihydropyridin-3-yl)methyl)-1H-pyrrolo[2,3-b]pyridine-3-carboxamide]
- EC50 [1]: < 10 nM
- IC50 ([2]; read-out: EZH2 (IC50)): < 0.5 nM

Compound: CSc1cc(C)[nH]c(=O)c1CNC(=O)c1c(C)n([C@H](C)C2CCN(CC(F)(F)F)CC2)c2cc(Br)ccc12 [Example 127, (R)-6-bromo-2-methyl-N-((6-methyl-4-(methylthio)-2-oxo-1,2-dihydropyridin-3-yl)methyl)-1-(1-(1-(2,2,2-trifluoroethyl)piperidin-4-yl)ethyl)-1H-indole-3-carboxamide]
- EC50 [1]: 10 to 100 nM
- IC50 ([2]; EZH2 (IC50)): < 0.5 nM

Compound: CSc1cc(C)[nH]c(=O)c1CNC(=O)c1c(C)n([C@H](C)C2CCN(CC(F)(F)F)CC2)c2cccc(Br)c12 [Example 128, (R)-4-bromo-2-methyl-N-((6-methyl-4-(methylthio)-2-oxo-1,2-dihydropyridin-3-yl)methyl)-1-(1-(1-(2,2,2-trifluoroethyl)piperidin-4-yl)ethyl)-1H-indole-3-carboxamide]
- EC50 [1]: 10 to 100 nM
- IC50 ([2]; EZH2 (IC50)): 0.5 to 5 nM

Compound: CSc1cc(C)[nH]c(=O)c1CNC(=O)c1c(C)n([C@H](C)C2CCC(N3CC(OC(C)(C)C)C3)CC2)c2ncc(Cl)cc12 (stereo partly drawn) [Example 129, 1-((R)-1-(4-(3-(tert-butoxy)azetidin-1-yl)cyclohexyl)ethyl)-5-chloro-2-methyl-N-((6-methyl-4-(methylthio)-2-oxo-1,2-dihydropyridin-3-yl)methyl)-1H-pyrrolo[2,3-b]pyridine-3-carboxamide]
- EC50 [1]: < 10 nM
- IC50 ([2]; read-out: EZH2 (IC50)): < 0.5 nM

Compound: CSc1cc(C)[nH]c(=O)c1CNC(=O)c1c(C)n([C@H](C)C2CCN(C3(C)CC3)CC2)c2ncccc12 [Example 131, (R)-2-methyl-N-((6-methyl-4-(methylthio)-2-oxo-1,2-dihydropyridin-3-yl)methyl)-1-(1-(1-(1-methylcyclopropyl)piperidin-4-yl)ethyl)-1H-pyrrolo[2,3-b]pyridine-3-carboxamide]
- EC50 [1]: < 10 nM
- IC50 ([2]; EZH2 (IC50)): < 0.5 nM

Compound: CSc1cc(C)[nH]c(=O)c1CNC(=O)c1c(C)n([C@H](C)C2CCC(OC3CC3)CC2)c2ccccc12 (stereo partly drawn) [Example 132, 1-((R)-1-(4-cyclopropoxycyclohexyl)ethyl)-2-methyl-N-((6-methyl-4-(methylthio)-2-oxo-1,2-dihydropyridin-3-yl)methyl)-1H-indole-3-carboxamide]
- EC50 [1]: < 10 nM
- IC50 ([2]; EZH2 (IC50)): < 0.5 nM

Compound: CSc1cc(C)[nH]c(=O)c1CNC(=O)c1c(C)n([C@H](C)C2CCN(C3COC3)CC2)c2ccccc12 [Example 133, (R)-2-methyl-N-((6-methyl-4-(methylthio)-2-oxo-1,2-dihydropyridin-3-yl)methyl)-1-(1-(1-(oxetan-3-yl)piperidin-4-yl)ethyl)-1H-indole-3-carboxamide]
- EC50 [1]: < 10 nM
- IC50 ([2]; EZH2 (IC50)): < 0.5 nM

Compound: CSc1cc(C)[nH]c(=O)c1CNC(=O)c1c(C)n([C@H](C)C2CCN(C(=O)CO)CC2)c2ccccc12 [Example 135, (R)-1-(1-(1-(2-hydroxyacetyl)piperidin-4-yl)ethyl)-2-methyl-N-((6-methyl-4-(methylthio)-2-oxo-1,2-dihydropyridin-3-yl)methyl)-1H-indole-3-carboxamide]
- EC50 [1]: > 100 nM
- IC50 ([2]; read-out: EZH2 (IC50)): < 0.5 nM

Compound: CSc1cc(C)[nH]c(=O)c1CNC(=O)c1c(C)n([C@H](C)C2CCC(N3CC(O)C3)CC2)c2ccccc12 (stereo partly drawn) [Example 136, (R)-1-(1-(4-(3-hydroxyazetidin-1-yl)cyclohexyl)ethyl)-2-methyl-N-((6-methyl-4-(methylthio)-2-oxo-1,2-dihydropyridin-3-yl)methyl)-1H-indole-3-carboxamide]
- EC50 [1]: > 100 nM
- IC50 ([2]; EZH2 (IC50)): < 0.5 nM

Compound: COC1CC(N2CCC([C@@H](C)n3c(C)c(C(=O)NCc4c(SC)cc(C)[nH]c4=O)c4ccccc43)CC2)C1 (stereo partly drawn) [Example 140, (R)-1-(1-(1-(3-methoxycyclobutyl)piperidin-4-yl)ethyl)-2-methyl-N-((6-methyl-4-(methylthio)-2-oxo-1,2-dihydropyridin-3-yl)methyl)-1H-indole-3-carboxamide]
- EC50 [1]: 10 to 100 nM
- IC50 ([2]; EZH2 (IC50)): < 0.5 nM

Compound: COC1CC(N2CCC([C@@H](C)n3c(C)c(C(=O)NCc4c(SC)cc(C)[nH]c4=O)c4cccnc43)CC2)C1 (stereo partly drawn) [Example 141, (R)-1-(1-(1-(3-methoxycyclobutyl)piperidin-4-yl)ethyl)-2-methyl-N-((6-methyl-4-(methylthio)-2-oxo-1,2-dihydropyridin-3-yl)methyl)-1H-pyrrolo[2,3-b]pyridine-3-carboxamide]
- EC50 [1]: 10 to 100 nM
- IC50 ([2]; EZH2 (IC50)): < 0.5 nM

Compound: CSc1cc(C)[nH]c(=O)c1CNC(=O)c1c(C)n([C@H](C)C2CCN(C(=O)CN(C)C)CC2)c2ccccc12 [Example 142, (R)-1-(1-(1-(dimethylglycyl)piperidin-4-yl)ethyl)-2-methyl-N-((6-methyl-4-(methylthio)-2-oxo-1,2-dihydropyridin-3-yl)methyl)-1H-indole-3-carboxamide]
- EC50 [1]: > 100 nM
- IC50 ([2]; read-out: EZH2 (IC50)): < 0.5 nM

Compound: CCS(=O)(=O)N1CCC([C@@H](C)n2c(C)c(C(=O)NCc3c(SC)cc(C)[nH]c3=O)c3ccccc32)CC1 [Example 146, (R)-1-(1-(1-(ethylsulfonyl)piperidin-4-yl)ethyl)-2-methyl-N-((6-methyl-4-(methylthio)-2-oxo-1,2-dihydropyridin-3-yl)methyl)-1H-indole-3-carboxamide]
- EC50 [1]: < 10 nM
- IC50 ([2]; read-out: EZH2 (IC50)): < 0.5 nM

Compound: COC1CC(N2CC[C@H]([C@@H](C)n3c(C)c(C(=O)NCc4c(SC)cc(C)[nH]c4=O)c4ccccc43)[C@@H](F)C2)C1 (stereo partly drawn) [Example 152, 1-((R)-1-((3R,4R)-3-fluoro-1-(3-methoxycyclobutyl)piperidin-4-yl)ethyl)-2-methyl-N-((6-methyl-4-(methylthio)-2-oxo-1,2-dihydropyridin-3-yl)methyl)-1H-indole-3-carboxamide]
- EC50 [1]: < 10 nM
- IC50 ([2]; read-out: EZH2 (IC50)): < 0.5 nM

Compound: COC1CC(N2CC[C@H]([C@@H](C)n3c(C)c(C(=O)NCc4c(SC)cc(C)[nH]c4=O)c4ccccc43)[C@H](F)C2)C1 (stereo partly drawn) [Example 153, 1-((R)-1-((3S,4R)-3-fluoro-1-(3-methoxycyclobutyl)piperidin-4-yl)ethyl)-2-methyl-N-((6-methyl-4-(methylthio)-2-oxo-1,2-dihydropyridin-3-yl)methyl)-1H-indole-3-carboxamide]
- EC50 [1]: < 10 nM
- IC50 ([2]; read-out: EZH2 (IC50)): < 0.5 nM

Compound: CSc1cc(C)[nH]c(=O)c1CNC(=O)c1c(C)n([C@H](C)C2CCC(N3CC(F)(C4CC4)C3)CC2)c2ncccc12 (stereo partly drawn) [Example 157, 1-((R)-1-(4-(3-cyclopropyl-3-fluoroazetidin-1-yl)cyclohexyl)ethyl)-2-methyl-N-((6-methyl-4-(methylthio)-2-oxo-1,2-dihydropyridin-3-yl)methyl)-1H-pyrrolo[2,3-b]pyridine-3-carboxamide]
- EC50 [1]: 10 to 100 nM
- IC50 ([2]; read-out: EZH2 (IC50)): < 0.5 nM
